Experimental data as given in patent US20230085307A1, “PYRIDAZINONE COMPOUND AND HERBICIDE” (NISSAN CHEMICAL CORPORATION, priority 2019, published 2023).

Legend:
southern crabgrass [1] = assay: Test Example 5: herbicidal effect by foliage application, plastic box (Table 20, symbol F); type: in vivo, southern crabgrass (Digitaria ciliaris); details: foliage application, 320 g/ha, three weeks after application
Procedure, shortened: (§1)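 Plants sown in sterilized diluvial soil and grown 14 days in a greenhouse at 25° C to 30° C, then sprayed on the foliage with the compound's emulsion diluted in water to a predetermined herbicide amount. Injury to weeds and crops scored three weeks after application on a visual rating scale.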

barnyard grass [2] = assay: Test Example 5: herbicidal effect by foliage application, plastic box (Table 20, symbol H); type: in vivo, barnyard grass (Echinochloa crus-galli); details: foliage application, 320 g/ha, three weeks after application
Procedure, shortened: as §1

blackgrass = assay: Test Example 5: herbicidal effect by foliage application, plastic box (Table 20, symbol J); type: in vivo, blackgrass (Alopecurus myosuroides); details: foliage application, 320 g/ha, three weeks after application
Procedure, shortened: as §1

green foxtail [3] = assay: Test Example 5: herbicidal effect by foliage application, plastic box (Table 20, symbol G); type: in vivo, green foxtail (Setaria viridis); details: foliage application, 320 g/ha, three weeks after application
Procedure, shortened: as §1

green foxtail [4] = assay: Test Example 4: herbicidal effect by soil treatment (Table 19, symbol G); type: in vivo, green foxtail (Setaria viridis); details: amount of applied herbicide 320 g/ha
Procedure, shortened: (§2)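 Seeds were sown in sterilized diluvial soil and covered with about 1.5 cm of soil. An emulsion formulation diluted with water to a predetermined herbicide amount was sprayed evenly onto the soil surface. Plants grew in a greenhouse at 25° C. to 30° C., and the effect was scored three weeks after application using criteria from an earlier test.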

Italian ryegrass = assay: Test Example 4: herbicidal effect by soil treatment (Table 19, symbol K); type: in vivo, Italian ryegrass (Lolium multiflorum); details: amount of applied herbicide 320 g/ha
Procedure, shortened: as §2

rice flat sedge = assay: Test Example 3: herbicidal effect by foliage application, Wagner pot (Table 18, symbol E); type: in vivo, rice flat sedge (Cyperus iria); details: 320 g/ha
Procedure, shortened: (§3)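 Plants were sown in alluvial soil held under 0.1–0.5 cm standing water and grown 14 days in a greenhouse at 25–30 °C. An emulsifiable formulation, water-diluted to the set dose, was then sprayed onto the foliage, and effects were scored three weeks later using previously defined criteria.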

late watergrass = assay: Test Example 1: herbicidal activity, application before weed generation under submerged conditions (Table 16, symbol A); type: in vivo, late watergrass (Echinochloa oryzicola); details: amount of applied herbicide 320 g/ha
Procedure, shortened: (§4)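 Emulsion formulation, water-diluted to set dose, was put onto the flooded surface (4 cm depth, alluvial soil) the same day weeds were sown and 2.5-leaf rice transplanted. After 3 weeks at 25-30 °C under glass, each species was rated 0 (≤5% kill) to 5 (≥90% kill).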

barnyard grass [5] = assay: Test Example 3: herbicidal effect by foliage application, Wagner pot (Table 18, symbol H); type: in vivo, barnyard grass (Echinochloa crus-galli); details: 320 g/ha
Procedure, shortened: as §3

velvetleaf [6] = assay: Test Example 5: herbicidal effect by foliage application, plastic box (Table 20, symbol M); type: in vivo, velvetleaf (Abutilon theophrasti); details: foliage application, 320 g/ha, three weeks after application
Procedure, shortened: as §1

southern crabgrass [7] = assay: Test Example 4: herbicidal effect by soil treatment (Table 19, symbol F); type: in vivo, southern crabgrass (Digitaria ciliaris); details: amount of applied herbicide 320 g/ha
Procedure, shortened: as §2

wild oat = assay: Test Example 5: herbicidal effect by foliage application, plastic box (Table 20, symbol I); type: in vivo, wild oat (Avena fatua); details: foliage application, 320 g/ha, three weeks after application
Procedure, shortened: as §1

velvetleaf [8] = assay: Test Example 4: herbicidal effect by soil treatment (Table 19, symbol M); type: in vivo, velvetleaf (Abutilon theophrasti); details: amount of applied herbicide 320 g/ha
Procedure, shortened: as §2

persian speedwell = assay: Test Example 4: herbicidal effect by soil treatment (Table 19, symbol R); type: in vivo, Persian speedwell (Veronica persica); details: amount of applied herbicide 320 g/ha
Procedure, shortened: as §2

redroot pigweed = assay: Test Example 5: herbicidal effect by foliage application, plastic box (Table 20, symbol N); type: in vivo, redroot pigweed (Amaranthus retroflexus); details: foliage application, 320 g/ha, three weeks after application
Procedure, shortened: as §1

windgrass [9] = assay: Test Example 4: herbicidal effect by soil treatment (Table 19, symbol L); type: in vivo, windgrass (Apera spica-venti); details: amount of applied herbicide 320 g/ha
Procedure, shortened: as §2

Japanese bulrush = assay: Test Example 1: herbicidal activity, application before weed generation under submerged conditions (Table 16, symbol B); type: in vivo, Japanese bulrush (Schoenoplectus juncoides); details: amount of applied herbicide 320 g/ha
Procedure, shortened: as §4

windgrass [10] = assay: Test Example 5: herbicidal effect by foliage application, plastic box (Table 20, symbol L); type: in vivo, windgrass (Apera spica-venti); details: foliage application, 320 g/ha, three weeks after application
Procedure, shortened: as §1

Row | Structure (SMILES) | F: southern crabgrass, herbicidal effect grade (southern crabgrass [1]) | H: barnyard grass, herbicidal effect grade (barnyard grass [2]) | J: blackgrass, herbicidal effect grade (blackgrass) | G: green foxtail, herbicidal effect grade (green foxtail [3]) | G: green foxtail, herbicidal effect grade (green foxtail [4]) | K: Italian ryegrass, herbicidal effect grade (Italian ryegrass) | herbicidal effect on rice flat sedge (E) (rice flat sedge) | Herbicidal effect, A: late watergrass (late watergrass) | herbicidal effect on barnyard grass (H) (barnyard grass [5]) | M: velvetleaf, herbicidal effect grade (velvetleaf [6]) | F: southern crabgrass, herbicidal effect grade (southern crabgrass [7]) | I: wild oat, herbicidal effect grade (wild oat) | M: velvetleaf, herbicidal effect grade (velvetleaf [8]) | R: persian speedwell, herbicidal effect grade (persian speedwell) | N: redroot pigweed, herbicidal effect grade (redroot pigweed) | L: windgrass, herbicidal effect grade (windgrass [9]) | Herbicidal effect, B: Japanese bulrush (Japanese bulrush) | L: windgrass, herbicidal effect grade (windgrass [10])
1 | CCCC(=O)Oc1c(C)nn(C)c(=O)c1-c1c(-c2ccc(F)cc2OCC)sc2cc(Cl)ccc12 [3-046] | 5 (Herbicidal rate of 90% or more (almost completely withered)) | 5 (Herbicidal rate of 90% or more (almost completely withered)) | 4 (Herbicidal rate of 70% or more and less than 90%) | 5 (Herbicidal rate of 90% or more (almost completely withered)) | 0 (Herbicidal rate of 5% or less (almost no effect)) | 0 (Herbicidal rate of 5% or less (almost no effect)) | 5 (Herbicidal rate of 90% or more (almost completely withered)) | 4 (Herbicidal rate of 70% or more and less than 90%) | 5 (Herbicidal rate of 90% or more (almost completely withered)) | 4 (Herbicidal rate of 70% or more and less than 90%) | 0 (Herbicidal rate of 5% or less (almost no effect)) | 5 (Herbicidal rate of 90% or more (almost completely withered)) | 1 (Herbicidal rate of 5% or more and less than 20%) | 4 (Herbicidal rate of 70% or more and less than 90%) | 4 (Herbicidal rate of 70% or more and less than 90%) | 5 (Herbicidal rate of 90% or more (almost completely withered)) | 0 (Herbicidal rate of 5% or less (almost no effect)) | 4 (Herbicidal rate of 70% or more and less than 90%)
2 | CCOc1ccccc1-c1sc2cc(C)ccc2c1-c1c(O)c(C)nn(C)c1=O [3-053] | 5 (Herbicidal rate of 90% or more (almost completely withered)) | 5 (Herbicidal rate of 90% or more (almost completely withered)) | 5 (Herbicidal rate of 90% or more (almost completely withered)) | 5 (Herbicidal rate of 90% or more (almost completely withered)) | 5 (Herbicidal rate of 90% or more (almost completely withered)) | 4 (Herbicidal rate of 70% or more and less than 90%) | 5 (Herbicidal rate of 90% or more (almost completely withered)) | 5 (Herbicidal rate of 90% or more (almost completely withered)) | 5 (Herbicidal rate of 90% or more (almost completely withered)) | 5 (Herbicidal rate of 90% or more (almost completely withered)) | 5 (Herbicidal rate of 90% or more (almost completely withered)) | 5 (Herbicidal rate of 90% or more (almost completely withered)) | 0 (Herbicidal rate of 5% or less (almost no effect)) | 5 (Herbicidal rate of 90% or more (almost completely withered)) | 5 (Herbicidal rate of 90% or more (almost completely withered)) | 5 (Herbicidal rate of 90% or more (almost completely withered)) | 5 (Herbicidal rate of 90% or more (almost completely withered)) | 5 (Herbicidal rate of 90% or more (almost completely withered))
3 | CCOc1cc(F)ccc1-c1sc2cc(C)ccc2c1-c1c(O)c(C)nn(C)c1=O [3-057] | 5 (Herbicidal rate of 90% or more (almost completely withered)) | 5 (Herbicidal rate of 90% or more (almost completely withered)) | 5 (Herbicidal rate of 90% or more (almost completely withered)) | 5 (Herbicidal rate of 90% or more (almost completely withered)) | 4 (Herbicidal rate of 70% or more and less than 90%) | 2 (Herbicidal rate of 20% or more and less than 40%) | 4 (Herbicidal rate of 70% or more and less than 90%) | 5 (Herbicidal rate of 90% or more (almost completely withered)) | 5 (Herbicidal rate of 90% or more (almost completely withered)) | 5 (Herbicidal rate of 90% or more (almost completely withered)) | 5 (Herbicidal rate of 90% or more (almost completely withered)) | 5 (Herbicidal rate of 90% or more (almost completely withered)) | 2 (Herbicidal rate of 20% or more and less than 40%) | 5 (Herbicidal rate of 90% or more (almost completely withered)) | 5 (Herbicidal rate of 90% or more (almost completely withered)) | 5 (Herbicidal rate of 90% or more (almost completely withered)) | 5 (Herbicidal rate of 90% or more (almost completely withered)) | 5 (Herbicidal rate of 90% or more (almost completely withered))
4 | CCCC(=O)Oc1c(C)nn(C)c(=O)c1-c1c(-c2ccc(F)cc2OCC)sc2cc(C)ccc12 [3-058] | 5 (Herbicidal rate of 90% or more (almost completely withered)) | 5 (Herbicidal rate of 90% or more (almost completely withered)) | 5 (Herbicidal rate of 90% or more (almost completely withered)) | 5 (Herbicidal rate of 90% or more (almost completely withered)) | 2 (Herbicidal rate of 20% or more and less than 40%) | 0 (Herbicidal rate of 5% or less (almost no effect)) | 5 (Herbicidal rate of 90% or more (almost completely withered)) | 5 (Herbicidal rate of 90% or more (almost completely withered)) | 5 (Herbicidal rate of 90% or more (almost completely withered)) | 5 (Herbicidal rate of 90% or more (almost completely withered)) | 5 (Herbicidal rate of 90% or more (almost completely withered)) | 5 (Herbicidal rate of 90% or more (almost completely withered)) | 5 (Herbicidal rate of 90% or more (almost completely withered)) | 4 (Herbicidal rate of 70% or more and less than 90%) | 4 (Herbicidal rate of 70% or more and less than 90%) | 5 (Herbicidal rate of 90% or more (almost completely withered)) | 5 (Herbicidal rate of 90% or more (almost completely withered)) | 5 (Herbicidal rate of 90% or more (almost completely withered))
